How the values were obtained:
HCC1187 = assay: Apoptosis assay for BC Cell lines (Caspase 3/7-Glo); format: cell-based; details: HCC1187, TN; 24 hours
Procedure: (§1) Apoptosis assay for BC Cell lines. Prior to testing, cells were grown and expanded in culture flasks to provide sufficient amounts of starting material. Cells were then diluted to their desired densities and added directly to compound-spotted 384-well plates. Cells were allowed to grow for 24 hours in 5% CO2 at 37° C. The apoptotic response was assessed by quantifying the activities of caspase 3 and caspase 7 (Caspase 3/7-Glo) in treated cells and control cells at the 24-hour time point. All data was normalized and represented as a value relative to the DMSO-treated cells. Results were then expressed as CalX, which is the minimum compound concentration required to double the levels of caspase 3/7 relative to those of the DMSO-treated cells during their treatment period.

HCC1937 = assay: as above; format: cell-based; details: HCC1937, TN; 24 hours
Procedure: as §1

HDQ-P1 = assay: as above; format: cell-based; details: HDQ-P1, TN; 24 hours
Procedure: as §1

HCC38 = assay: as above; format: cell-based; details: HCC38, TN; 24 hours
Procedure: as §1

MDA-MB-436 = assay: as above; format: cell-based; details: MDA-MB-436, TN; 24 hours
Procedure: as §1

BT-549 = assay: as above; format: cell-based; details: BT-549, TN; 24 hours
Procedure: as §1

MDA-MB-231 = assay: as above; format: cell-based; details: MDA-MB-231, TN; 24 hours
Procedure: as §1

HCC2157 = assay: as above; format: cell-based; details: HCC2157, TN; 24 hours
Procedure: as §1

CAL-120 = assay: as above; format: cell-based; details: CAL-120, TN; 24 hours
Procedure: as §1

BT-20 = assay: as above; format: cell-based; details: BT-20, TN; 24 hours
Procedure: as §1

HCC70 = assay: as above; format: cell-based; details: HCC70, TN; 24 hours
Procedure: as §1

CAL-148 = assay: as above; format: cell-based; details: CAL-148, TN; 24 hours
Procedure: as §1

MB157 = assay: as above; format: cell-based; details: MB157, TN; 24 hours
Procedure: as §1

HS578T = assay: as above; format: cell-based; details: TN, 24 hours
Procedure: as §1

DU4475 = assay: as above; format: cell-based; details: DU4475, TN; 24 hours
Procedure: as §1

HCC1143 = assay: as above; format: cell-based; details: HCC1143, TN; 24 hours
Procedure: as §1

MDA-MB-157 = assay: as above; format: cell-based; details: MDA-MB-157, TN; 24 hours
Procedure: as §1

MDA-MB-468 = assay: as above; format: cell-based; details: MDA-MB-468, TN; 24 hours
Procedure: as §1

MT-3 = assay: as above; format: cell-based; details: MT-3, TN; 24 hours
Procedure: as §1

CAL-51 = assay: as above; format: cell-based; details: CAL-51, TN; 24 hours
Procedure: as §1

HCC1806 = assay: as above; format: cell-based; details: HCC1806, TN; 24 hours
Procedure: as §1

CAL-85-1 = assay: as above; format: cell-based; details: CAL-85-1, TN; 24 hours
Procedure: as §1

MDA-MB-231 tumors = assay: MDA-MB-231 Triple Negative (TN) Breast Cancer Model (xenograft); format: in vivo; details: nude mice, subcutaneous MDA-MB-231 xenograft; oral QD for up to 26 days, 1 to 5 mg/kg
Procedure: A xenograft study was conducted with MDA-MB-231 tumor-bearing mice. Nude mice were inoculated subcutaneously with MDA-MB-231 cells in the flank region above the right hind leg. Following inoculation of animals, the tumors were allowed to grow to about 150 mm^3 prior to randomization. On Day 38 following tumor cell inoculation, the mice bearing MDA-MB-231 tumors ranging between 65 and 304 mm^3 were pooled together and randomized into various treatment groups. […] The positive control Taxotere (15 mg/kg, Q4D) was administered via the intravenous (IV) route. Taxotere was diluted in saline. Tumors were measured twice a week using calipers and tumor volumes were calculated using the formula of W2 × L / 2 (wherein “W” is tumor width and “L” is tumor length).

CCN1C(=O)CNc2ncc(-c3ccc(-c4nc[nH]n4)nc3C)nc21 [Compound 1, 1-ethyl-7-(2-methyl-6-(1H-1,2,4-triazol-3-yl)pyridin-3-yl)-3,4-dihydropyrazino[2,3-b]pyrazin-2(1H)-one]
CalX (minimum compound concentration required to double the levels of caspase 3/7) (HCC1187): 0.6418 µM | CalX (minimum compound concentration required to double the levels of caspase 3/7) (HCC1937): ≥10 µM | CalX (minimum compound concentration required to double the levels of caspase 3/7) (HDQ-P1): ≥10 µM | CalX (minimum compound concentration required to double the levels of caspase 3/7) (HCC38): ≥10 µM | CalX (minimum compound concentration required to double the levels of caspase 3/7) (MDA-MB-436): ≥10 µM | CalX (minimum compound concentration required to double the levels of caspase 3/7) (BT-549): ≥10 µM | CalX (minimum compound concentration required to double the levels of caspase 3/7) (MDA-MB-231): ≥10 µM | CalX (minimum compound concentration required to double the levels of caspase 3/7) (HCC2157): 1.3472 µM | CalX (minimum compound concentration required to double the levels of caspase 3/7) (CAL-120): ≥10 µM | CalX (minimum compound concentration required to double the levels of caspase 3/7) (BT-20): 0.6025 µM | CalX (minimum compound concentration required to double the levels of caspase 3/7) (HCC70): ≥10 µM | CalX (minimum compound concentration required to double the levels of caspase 3/7) (CAL-148): 0.1583 µM | CalX (minimum compound concentration required to double the levels of caspase 3/7) (MB157): ≥10 µM | CalX (minimum compound concentration required to double the levels of caspase 3/7) (HS578T): ≥10 µM | CalX (minimum compound concentration required to double the levels of caspase 3/7) (DU4475): 0.9448 µM | CalX (minimum compound concentration required to double the levels of caspase 3/7) (HCC1143): ≥10 µM | CalX (minimum compound concentration required to double the levels of caspase 3/7) (MDA-MB-157): ≥10 µM | CalX (minimum compound concentration required to double the levels of caspase 3/7) (MDA-MB-468): ≥10 µM | CalX (minimum compound concentration required to double the levels of caspase 3/7) (MT-3): 2.4106 µM | CalX (minimum compound concentration required to double the levels of caspase 3/7) (CAL-51): 0.3611 µM | CalX (minimum compound concentration required to double the levels of caspase 3/7) (HCC1806): ≥10 µM | CalX (minimum compound concentration required to double the levels of caspase 3/7) (CAL-85-1): ≥10 µM | tumor growth (MDA-MB-231 tumors): inhibited MDA-MB-231 breast cancer tumor growth

From patent publication US20230338370A1, “Treatment of Cancer with TOR Kinase Inhibitors” (Signal Pharmaceuticals, LLC, priority 2012, published 2023)
